# According to PubChem BioAssay (NCI):
#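 Dose response: 5 concentrations. Exposure: 48 h. Format: 96-well plates. Endpoint: linear interpolation; highest concentration if not reached. The concentration for full growth arrest is given as TGI.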
# Assays:
# Test in all cases: inhibition of tumour cell growth, NCI panel, 48 h
# HCT-15 colon = test system: HCT-15 colon
# LOX IMVI melanoma = test system: LOX IMVI melanoma
# 786-0 renal = test system: 786-0 renal
# PC-3 prostate = test system: PC-3 prostate
# SNB-19 CNS = test system: SNB-19 CNS
# MCF7 breast = test system: MCF7 breast
# RXF 393 renal = test system: RXF 393 renal
# BT-549 breast = test system: BT-549 breast
# A498 renal = test system: A498 renal
# MDA-MB-435 = test system: MDA-MB-435
# MDA-N = test system: MDA-N
# M14 melanoma = test system: M14 melanoma
# NCI-H460 lung = test system: NCI-H460 lung
# MALME-3M melanoma = test system: MALME-3M melanoma
# HT29 colon = test system: HT29 colon
# TK-10 renal = test system: TK-10 renal
# HS 578T breast = test system: HS 578T breast
# RPMI-8226 leukemia = test system: RPMI-8226 leukemia
# HCT-116 colon = test system: HCT-116 colon
# SK-MEL-28 melanoma = test system: SK-MEL-28 melanoma
# IGROV1 ovarian = test system: IGROV1 ovarian
# CAKI-1 renal = test system: CAKI-1 renal
# EKVX NSCLC = test system: EKVX NSCLC
# U251 CNS = test system: U251 CNS
# UACC-257 melanoma = test system: UACC-257 melanoma
# COLO 205 colon = test system: COLO 205 colon
# HOP-92 NSCLC = test system: HOP-92 NSCLC
# SF-295 CNS = test system: SF-295 CNS
# SK-MEL-5 melanoma = test system: SK-MEL-5 melanoma
# OVCAR-4 ovarian = test system: OVCAR-4 ovarian
# MDA-MB-231 breast = test system: MDA-MB-231 breast
# NCI-H23 lung = test system: NCI-H23 lung
# K-562 leukemia = test system: K-562 leukemia
# UO-31 renal = test system: UO-31 renal
# NCI-H522 lung = test system: NCI-H522 lung
# OVCAR-8 ovarian = test system: OVCAR-8 ovarian
# NCI/ADR-RES ovarian = test system: NCI/ADR-RES ovarian
# CCRF-CEM leukemia = test system: CCRF-CEM leukemia
# OVCAR-3 ovarian = test system: OVCAR-3 ovarian
# SF-539 CNS = test system: SF-539 CNS
# NCI-H226 lung = test system: NCI-H226 lung
# SW-620 colon = test system: SW-620 colon
# HOP-62 NSCLC = test system: HOP-62 NSCLC
# HCC-2998 colon = test system: HCC-2998 colon
# KM12 colon = test system: KM12 colon
# SK-MEL-2 melanoma = test system: SK-MEL-2 melanoma
# A549 NSCLC = test system: A549 NSCLC
# OVCAR-5 ovarian = test system: OVCAR-5 ovarian
# SN12C renal = test system: SN12C renal
# MOLT-4 leukemia = test system: MOLT-4 leukemia
# HL-60(TB) leukemia = test system: HL-60(TB) leukemia
# DU-145 prostate = test system: DU-145 prostate
# T-47D breast = test system: T-47D breast
# UACC-62 melanoma = test system: UACC-62 melanoma
# SK-OV-3 ovarian = test system: SK-OV-3 ovarian
# SF-268 CNS = test system: SF-268 CNS
# ACHN renal = test system: ACHN renal
# SR leukemia = test system: SR leukemia
# SNB-75 CNS = test system: SNB-75 CNS
smiles,measurement,setting,value
COc1ccc(-c2oc3cc(OC)ccc3c(=O)c2O)cc1,TGI,HCT-15 colon,> 100 µM
same,TGI,LOX IMVI melanoma,> 100 µM
same,TGI,786-0 renal,> 100 µM
same,TGI,PC-3 prostate,> 100 µM
same,TGI,SNB-19 CNS,> 100 µM
same,TGI,MCF7 breast,> 31.6 µM
same,TGI,RXF 393 renal,42.6 µM
same,TGI,BT-549 breast,4.23 µM
same,TGI,A498 renal,> 100 µM
same,TGI,MDA-MB-435,> 31.6 µM
same,TGI,MDA-N,> 100 µM
same,TGI,M14 melanoma,> 31.6 µM
same,TGI,NCI-H460 lung,> 100 µM
same,TGI,MALME-3M melanoma,> 31.6 µM
same,TGI,HT29 colon,> 100 µM
same,TGI,TK-10 renal,> 100 µM
same,TGI,HS 578T breast,5.53 µM
same,TGI,RPMI-8226 leukemia,> 31.6 µM
same,TGI,HCT-116 colon,> 100 µM
same,TGI,SK-MEL-28 melanoma,> 31.6 µM
same,TGI,IGROV1 ovarian,> 31.6 µM
same,TGI,CAKI-1 renal,8.33 µM
same,TGI,EKVX NSCLC,> 100 µM
same,TGI,U251 CNS,> 100 µM
same,TGI,UACC-257 melanoma,> 100 µM
same,TGI,COLO 205 colon,> 100 µM
same,TGI,HOP-92 NSCLC,> 31.6 µM
same,TGI,SF-295 CNS,> 100 µM
same,TGI,SK-MEL-5 melanoma,> 100 µM
same,TGI,OVCAR-4 ovarian,> 31.6 µM
same,TGI,MDA-MB-231 breast,> 100 µM
O=C(O)CCSc1ncnc2nc[nH]c12,TGI,NCI-H23 lung,> 100 µM
same,TGI,HCT-15 colon,> 100 µM
same,TGI,LOX IMVI melanoma,> 100 µM
same,TGI,786-0 renal,> 100 µM
same,TGI,K-562 leukemia,> 100 µM
same,TGI,PC-3 prostate,> 100 µM
same,TGI,UO-31 renal,> 100 µM
same,TGI,NCI-H522 lung,> 100 µM
same,TGI,OVCAR-8 ovarian,> 100 µM
same,TGI,SNB-19 CNS,> 100 µM
same,TGI,NCI/ADR-RES ovarian,> 100 µM
same,TGI,MCF7 breast,> 100 µM
same,TGI,CCRF-CEM leukemia,> 100 µM
same,TGI,RXF 393 renal,> 100 µM
same,TGI,BT-549 breast,> 100 µM
same,TGI,A498 renal,> 100 µM
same,TGI,MDA-MB-435,> 100 µM
same,TGI,MDA-N,> 100 µM
same,TGI,M14 melanoma,> 100 µM
same,TGI,OVCAR-3 ovarian,> 100 µM
same,TGI,NCI-H460 lung,> 100 µM
same,TGI,MALME-3M melanoma,> 100 µM
same,TGI,SF-539 CNS,> 100 µM
same,TGI,HT29 colon,> 100 µM
same,TGI,NCI-H226 lung,> 100 µM
same,TGI,SW-620 colon,> 100 µM
same,TGI,HOP-62 NSCLC,> 100 µM
same,TGI,TK-10 renal,> 100 µM
same,TGI,HS 578T breast,> 100 µM
same,TGI,RPMI-8226 leukemia,> 100 µM
same,TGI,HCT-116 colon,> 100 µM
same,TGI,SK-MEL-28 melanoma,> 100 µM
same,TGI,HCC-2998 colon,> 100 µM
same,TGI,KM12 colon,> 100 µM
same,TGI,IGROV1 ovarian,> 100 µM
same,TGI,SK-MEL-2 melanoma,> 100 µM
same,TGI,A549 NSCLC,> 100 µM
same,TGI,CAKI-1 renal,> 100 µM
same,TGI,OVCAR-5 ovarian,> 100 µM
same,TGI,SN12C renal,> 100 µM
same,TGI,MOLT-4 leukemia,> 100 µM
same,TGI,EKVX NSCLC,> 100 µM
same,TGI,HL-60(TB) leukemia,> 100 µM
same,TGI,DU-145 prostate,> 100 µM
same,TGI,U251 CNS,> 100 µM
same,TGI,UACC-257 melanoma,> 100 µM
same,TGI,COLO 205 colon,> 100 µM
same,TGI,HOP-92 NSCLC,96.3 µM
same,TGI,T-47D breast,> 100 µM
same,TGI,UACC-62 melanoma,> 100 µM
same,TGI,SK-OV-3 ovarian,> 100 µM
same,TGI,SF-295 CNS,> 100 µM
same,TGI,SF-268 CNS,> 100 µM
same,TGI,SK-MEL-5 melanoma,> 100 µM
same,TGI,OVCAR-4 ovarian,> 100 µM
same,TGI,ACHN renal,> 100 µM
same,TGI,MDA-MB-231 breast,> 100 µM
CSc1ncnc2c1cnn2Cc1cn(COCC(O)CO)nn1 (stereo not drawn),TGI,NCI-H23 lung,> 100 µM
same,TGI,HCT-15 colon,> 100 µM
same,TGI,LOX IMVI melanoma,> 100 µM
same,TGI,786-0 renal,> 100 µM
same,TGI,SR leukemia,> 100 µM
same,TGI,PC-3 prostate,> 100 µM
same,TGI,UO-31 renal,> 100 µM
same,TGI,NCI-H522 lung,44.6 µM
same,TGI,OVCAR-8 ovarian,> 100 µM
same,TGI,SNB-19 CNS,> 100 µM
same,TGI,NCI/ADR-RES ovarian,> 100 µM
same,TGI,MCF7 breast,> 100 µM
same,TGI,CCRF-CEM leukemia,> 100 µM
same,TGI,BT-549 breast,> 100 µM
same,TGI,A498 renal,> 100 µM
same,TGI,MDA-MB-435,> 100 µM
same,TGI,MDA-N,> 100 µM
same,TGI,M14 melanoma,> 100 µM
same,TGI,OVCAR-3 ovarian,> 100 µM
same,TGI,SF-539 CNS,> 100 µM
same,TGI,HT29 colon,> 100 µM
same,TGI,NCI-H226 lung,> 100 µM
same,TGI,SW-620 colon,> 100 µM
same,TGI,HOP-62 NSCLC,> 100 µM
same,TGI,TK-10 renal,> 100 µM
same,TGI,RPMI-8226 leukemia,> 100 µM
same,TGI,HCT-116 colon,> 100 µM
same,TGI,SK-MEL-28 melanoma,> 100 µM
same,TGI,HCC-2998 colon,> 100 µM
same,TGI,KM12 colon,> 100 µM
same,TGI,IGROV1 ovarian,> 100 µM
same,TGI,SK-MEL-2 melanoma,> 100 µM
same,TGI,A549 NSCLC,> 100 µM
same,TGI,CAKI-1 renal,> 100 µM
same,TGI,OVCAR-5 ovarian,> 100 µM
same,TGI,SN12C renal,> 100 µM
same,TGI,MOLT-4 leukemia,> 100 µM
same,TGI,EKVX NSCLC,> 100 µM
same,TGI,HL-60(TB) leukemia,> 100 µM
same,TGI,DU-145 prostate,> 100 µM
same,TGI,U251 CNS,> 100 µM
same,TGI,UACC-257 melanoma,> 100 µM
same,TGI,COLO 205 colon,> 100 µM
same,TGI,HOP-92 NSCLC,> 100 µM
same,TGI,T-47D breast,> 100 µM
same,TGI,UACC-62 melanoma,> 100 µM
same,TGI,SK-OV-3 ovarian,> 100 µM
same,TGI,SF-295 CNS,> 100 µM
same,TGI,SF-268 CNS,52.7 µM
same,TGI,SK-MEL-5 melanoma,> 100 µM
same,TGI,OVCAR-4 ovarian,> 100 µM
same,TGI,ACHN renal,> 100 µM
same,TGI,MDA-MB-231 breast,> 100 µM
CN(C)CCN1C(=O)N(CCN(C)C)c2c3cc(O)ccc3nc3c([N+](=O)[O-])ccc1c23,TGI,NCI-H23 lung,36.6 µM
same,TGI,HCT-15 colon,20.8 µM
same,TGI,LOX IMVI melanoma,24.3 µM
same,TGI,786-0 renal,19 µM
same,TGI,SR leukemia,0.807 µM
same,TGI,K-562 leukemia,14.5 µM
same,TGI,PC-3 prostate,75 µM
same,TGI,UO-31 renal,33.9 µM
same,TGI,NCI-H522 lung,33.3 µM
same,TGI,OVCAR-8 ovarian,36 µM
same,TGI,SNB-19 CNS,24.2 µM
same,TGI,NCI/ADR-RES ovarian,86.3 µM
same,TGI,CCRF-CEM leukemia,20 µM
same,TGI,BT-549 breast,40.6 µM
same,TGI,A498 renal,29.6 µM
same,TGI,MDA-MB-435,32.9 µM
same,TGI,MDA-N,26.7 µM
same,TGI,NCI-H460 lung,26.4 µM
same,TGI,MALME-3M melanoma,29.6 µM
same,TGI,HT29 colon,20.1 µM
same,TGI,NCI-H226 lung,30.5 µM
same,TGI,SW-620 colon,24.7 µM
same,TGI,TK-10 renal,33.6 µM
same,TGI,HS 578T breast,45.8 µM
same,TGI,RPMI-8226 leukemia,42.4 µM
same,TGI,HCT-116 colon,17.1 µM
same,TGI,SNB-75 CNS,44.9 µM
same,TGI,SK-MEL-28 melanoma,58.5 µM
same,TGI,HCC-2998 colon,25.8 µM
same,TGI,KM12 colon,23.3 µM
same,TGI,IGROV1 ovarian,13.6 µM
same,TGI,SK-MEL-2 melanoma,59.1 µM
same,TGI,A549 NSCLC,35.5 µM
same,TGI,CAKI-1 renal,47.9 µM
same,TGI,SN12C renal,23.6 µM
same,TGI,DU-145 prostate,27 µM
same,TGI,U251 CNS,24.4 µM
same,TGI,UACC-257 melanoma,29.2 µM
same,TGI,COLO 205 colon,23.3 µM
same,TGI,HOP-92 NSCLC,37.3 µM
same,TGI,T-47D breast,39.2 µM
same,TGI,UACC-62 melanoma,30.8 µM
same,TGI,SF-268 CNS,26.7 µM
same,TGI,SK-MEL-5 melanoma,26.8 µM
same,TGI,OVCAR-4 ovarian,28.4 µM
same,TGI,ACHN renal,19.1 µM
same,TGI,MDA-MB-231 breast,25.4 µM
